Values quoted from earlier work as cited in PubChem BioAssay AID1259409 (Chemical Carcinogenesis Research Information System (CCRIS), 2018).

Test system: rodent chemically induced tumor inhibition, incidence and multiplicity
Experiment: CCRIS tumor inhibitor studies
Conditions: Carcinogen: N-METHYL-N-NITROSOUREA, 684-93-5, Route [Inhibitor]: ORAL, Species: RAT, Promoter: NONE USED

With CC1=C(/C=C/C(C)=C/C=C/C(C)=C/C(=O)Nc2ccc(O)cc2)C(C)(C)CCC1 as the compound, how does the “tumour outcome (control, treated, inhibition, significance)” value (Dose [Inhibitor]: 0, 782 MG/KG OF GRAIN-BASED WAYNE DIET FOR DURATION OF STUDY BEGINNING 7 D POST CARCINOGEN DOSE (STUDY DURATION: 25 WK), Strain/Sex: F344/FEMALE, Target Tissue: Type of Lesion: MAMMARY GLAND: TUMOR, Dose [Carcinogen]: 45 MG/KG BW ONCE AT 50 D OF AGE) read?
Its value is 9/25 (36%), 6/25 (24%), 33%, not significant.

And the “tumour outcome (control, treated, inhibition, significance)” value (Dose [Inhibitor]: 0, 782 MG/KG OF GRAIN-BASED WAYNE DIET FOR DURATION OF STUDY BEGINNING 7 D PRIOR TO CARCINOGEN DOSE (STUDY DURATION: 26, Strain/Sex: F344/FEMALE, Target Tissue: Type of Lesion: MAMMARY GLAND: TUMOR, Dose [Carcinogen]: 45 MG/KG BW ONCE AT 50 D OF AGE)?
The value was 9/25 (36%), 5/25 (20%), 44%, not significant.

And the “tumour outcome (control, treated, inhibition, significance)” value (Dose [Inhibitor]: 0, 786 MG/KG IN DIET FOR 26 WK BEGINNING 4 WK POST CARCINOGEN DOSE (STUDY DURATION: 31 WK), Strain/Sex: SPRAGUE-DAWLEY/FEMALE, Target Tissue: Type of Lesion: MAMMARY GLAND: ADENOCARCINOMA, Dose [Carcinogen]: 50 MG/KG ONCE)?
Its value is 84%, 74%, 12%, not significant.

What about the “tumour outcome (control, treated, inhibition, significance)” value (Dose [Inhibitor]: 0, 786 MG/KG IN DIET FOR 31 WK BEGINNING 1 WK PRIOR TO CARCINOGEN DOSE (STUDY DURATION: 31 WK), Strain/Sex: SPRAGUE-DAWLEY/FEMALE, Target Tissue: Type of Lesion: MAMMARY GLAND: ADENOCARCINOMA, Dose [Carcinogen]: 50 MG/KG ONCE) of the same compound?
Its value is 84%, 71%, 15%, not significant.

What about the “tumour outcome (control, treated, inhibition, significance)” value (Dose [Inhibitor]: 0, 1173 MG/KG DIET BEGINNING AFTER THE SURGICAL REMOVAL OF THE FIRST PALPABLE TUMOR (STUDY DURATION: LIFETIME), Strain/Sex: SPRAGUE-DAWLEY/FEMALE, Target Tissue: Type of Lesion: MAMMARY GLAND: TUMOR, Dose [Carcinogen]: 35 MG/KG ONCE AT 50 DAYS OF AGE) of the same compound?
The value was 93%, 88%, 5%, not calculated.

What about the “tumour outcome (control, treated, inhibition, significance)” value (Dose [Inhibitor]: 1 MMOL/KG DIET DAILY STARTING 3 D AFTER LAST CARCINOGEN DOSE THROUGH END OF STUDY (STUDY DURATION: 129 D), Strain/Sex: SPRAGUE-DAWLEY/FEMALE, Target Tissue: Type of Lesion: MAMMARY GLAND: TUMOR, Dose [Carcinogen]: 50 MG/KG BW AT BOTH 50 AND 57 D OF AGE) of the same compound?
Its value is 17/17 (100%), 12/15 (80%), 20%, not significant.

What about the “tumour outcome (control, treated, inhibition, significance)” value (Dose [Inhibitor]: 1 MMOL/KG DIET DAILY STARTING 3 D AFTER LAST CARCINOGEN DOSE THROUGH END OF STUDY (STUDY DURATION: 182 D), Strain/Sex: SPRAGUE-DAWLEY/FEMALE, Target Tissue: Type of Lesion: MAMMARY GLAND: TUMOR, Dose [Carcinogen]: 15 MG/KG BW AT BOTH 50 AND 57 D OF AGE) of the same compound?
The value was 12/40 (30%), 12/40 (30%), 0%, not significant.

What about the “tumour outcome (control, treated, inhibition, significance)” value (Dose [Inhibitor]: 2 MMOL/KG DIET DAILY FROM 2 D PRIOR THROUGH 12 WK AFTER CARCINOGEN DOSE FOLLOWED BY 16 WK OBSERVATION PERIOD (STUDY DURA, Strain/Sex: SPRAGUE-DAWLEY/FEMALE, Target Tissue: Type of Lesion: MAMMARY GLAND: TUMOR, Dose [Carcinogen]: 25 MG/KG BW ONCE) of the same compound?
Its value is 18/21 (86%), 15/30 (50%), 42%, p 0.027.

And the “tumour outcome (control, treated, inhibition, significance)” value (Dose [Inhibitor]: 2 MMOL/KG DIET DAILY FROM 2 D THROUGH 17 WK AFTER CARCINOGEN DOSE FOLLOWED BY 11 WK OBSERVATION PERIOD (STUDY DURATION:, Strain/Sex: SPRAGUE-DAWLEY/FEMALE, Target Tissue: Type of Lesion: MAMMARY GLAND: TUMOR, Dose [Carcinogen]: 25 MG/KG BW ONCE)?
The value was 18/21 (86%), 18/30 (60%), 30%, not significant.

And the “tumour outcome (control, treated, inhibition, significance)” value (Dose [Inhibitor]: 2 MMOL/KG DIET DAILY STARTING 3 D AFTER LAST CARCINOGEN DOSE THROUGH END OF STUDY (STUDY DURATION: 129 D), Strain/Sex: SPRAGUE-DAWLEY/FEMALE, Target Tissue: Type of Lesion: MAMMARY GLAND: TUMOR, Dose [Carcinogen]: 50 MG/KG BW AT BOTH 50 AND 57 D OF AGE)?
The value was 17/17 (100%), 11/17 (65%), 35%, p<0.01.

What about the “tumour outcome (control, treated, inhibition, significance)” value (Dose [Inhibitor]: 2 MMOL/KG DIET DAILY STARTING 3 D AFTER LAST CARCINOGEN DOSE THROUGH END OF STUDY (STUDY DURATION: 182 D), Strain/Sex: SPRAGUE-DAWLEY/FEMALE, Target Tissue: Type of Lesion: MAMMARY GLAND: TUMOR, Dose [Carcinogen]: 15 MG/KG BW AT BOTH 50 AND 57 D OF AGE) of the same compound?
The value was 12/40 (30%), 6/40 (15%), 50%, not significant.

What about the “tumour outcome (control, treated, inhibition, significance)” value (Dose [Inhibitor]: 2 MMOL/KG DIET DAILY STARTING 12 D AFTER CARCINOGEN TREATMENT THROUGH ABOUT 8 MO AFTER CARCINOGEN DOSE (STUDY DURATION:, Strain/Sex: F344/MALE, Target Tissue: Type of Lesion: COLON: ADENOCARCINOMA, Dose [Carcinogen]: 2.5 MG 1/WK FOR 2 WK) of the same compound?
The value was 5/39 (13%), 3/30 (10%), 23%, not significant.
